Data set [1] in a line: Intestinal absorption assay (Papp, apical to basolateral) across Caco-2-HT29-MTX-E12 coculture on Transwell. It is filed as in vitro ADME, human. Particulars: human, 10:1 dilution, applied 2 h, read-out: Apparent permeability (Papp). On the procedure: (§1) Caco-2 and HT-29-MTX-E12 cells were seeded on Costar Transwell® plate inserts in a ratio of 9:1 and at a density of 1,09,000 cells/cm^2 and 12,120 cells/cm^2, respectively. Cells were cultured in growth media at 37°C and 5% CO2 for 21 days to facilitate cell differentiation and formation of an intact monolayer. During the 21-day differentiation period, growth media was removed and replaced with fresh media every 2–3 days. Cell differentiation of an intact monolayer was monitored by measuring the transepithelial electrical resistance (TEER) of the cell monolayer in an apical–basolateral direction. TEER was measured using the Millicell-ERS Voltohmmeter from Millipore (Burlington, MA, USA). TEER is a measurement of resistance and is a sensitive and convenient method to assess and the integrity of the cell monolayer. The values obtained are determined by cellular resistance (between apical and basolateral membrane) and the paracellular resistance (tight junctions). TEER values above 300 Ω.cm^2 are indicative of differentiated Caco-2-HT29-MTX-E12 cells and an intact monolayer ([17]).
(§2) In vitro absorption was performed by following the procedure described by Osborne and colleagues ([18]). On the day of the intestinal absorption assay, TEER was measured and growth media was replaced with HBSS in the apical and basolateral chambers for 2 h to enhance uptake of the applied digesta. For the absorption study, intestinal digesta samples (I30, I60, and I120) were diluted 10:1 with HBSS. […] In the apical chamber, 200 μL diluted intestinal digesta (I30, I60, and I120) were applied for 120 min. HBSS (600 μL) was added in the basolateral chamber. After 2 h, all apical and basolateral samples were collected and stored at−80°C. HBSS was replaced with growth media in all chambers with TEER values measured again immediately after the assay. TEER was also recorded 24 and 48 h after the assay. Intestinal absorption studies were performed in duplicate. The rate of EA, AA, OA, and Ca^2+ movement across the transwell® membrane was determined by calculating the apparent permeability coefficient (Papp) in cm/s as follows ([19]):
(§3) ΔQ/Δt is steady-state appearance rate of compound in receiver (basolateral) compartment (μmol/s).
(§4) A is the surface area of the filter (i.e., 0.33 cm^2).
(§5) C0 is the initial concentration in the donor (apical) compartment (μM).
(§6) Intestinal absorption of AA, EA, OA, and Ca^2+ from digested T. ferdinandiana powder was measured using Caco-2-HT29-MTX-E12 coculture cell monolayers. Intestinal digesta samples that were collected at different time points (I30, I60, and I120) throughout the in vitro digestion were applied to the coculture transwell model for 120 min before apical and basolateral samples were collected. The amount of AA, EA, OA, and Ca^2+ was measured in the digesta initially applied to the apical chamber of the transwell model, and in samples collected from the basolateral chamber. Apparent permeability (Papp) was calculated with statistical significance observed (p ≤ 0.05) in Papp values obtained from the applied I30, I60, and I120 digesta samples (Figure 4 and Table 2).
In general terms: Caco-2 cells form a polarised layer with tight junctions and transporters.

The test system of data set [2] is Caco-2-HT29-MTX-E12 coculture cell monolayers. The description is as above. It is filed as in vitro ADME, human. Particulars: for In vitro permeability (in words): comparison among AA, EA, OA, Ca^2+; for Apparent permeability (Papp): 10:1 dilution, applied 2 h. As to the method: as §1, §2, §3, §4, §5, §6
Details of data set [3]: method as in PMID 23374081. As to conditions: blended fruit juice containing orange, pineapple, and kiwi; cited from earlier work.
Data set [4] can be described thus: INFOGEST static in vitro gastrointestinal digestion, bioaccessibility from T. ferdinandiana freeze-dried powder. It is filed as in vitro ADME. On the procedure:
Freeze-dried T. ferdinandiana powder (0.5 g) was mixed with 20 mL milli-Q water, vortexed, and used as the initial starting material for in vitro gastrointestinal digestion based on the INFOGEST model detailed in Section INFOGEST Gastrointestinal in vitro Digestion ([14]). Digestions were performed in duplicate with samples collected at various time points throughout the digestion process. Gastric digesta samples were collected at t = 0 (G0) and t = 60 (G60) min into the gastric phase, and intestinal digesta were collected at t = 30 (I30), t = 60 (I60), and t = 120 (I120) min into the intestinal digestion phase.
A harmonized in vitro gastrointestinal digestion method developed in the COST action INFOGEST network was applied ([14]). Oral phase was not included in this experiment as T. ferdinandiana fruit is currently marketed as freeze-dried powder that would not undergo a substantial oral phase or may be incorporated into a nutraceutical product in pill, capsule, or beverage form. The digestive fluids (simulated salivary fluid (SSF), simulated gastric fluid (SGF), and simulated intestinal fluid (SIF)) were prepared according to the INFOGEST method ([14]). The activity of all enzymes was also measured according to the protocols described in the INFOGEST method ([14]) to ensure standardized application. […] Porcine pancreatin was used at 16 units/mL trypsin activity. […] Figure 1 provides an overview of the digestion protocols and conditions employed in the study. At the end of each digestion steps, samples were collected and snap-frozen (−80°C) to stop the digestion. Pefabloc at a concentration of 0.1 M was recommended to stop intestinal digestion; however, considering the cytotoxic nature of Pefabloc at a concentration ≥ 0.25 mM, Pefabloc was not applied to avoid future cell toxicity.
The samples were centrifuged and filtered through 0.22 μm syringe filters prior to analysis. An Acquity UHPLC system (Waters Corp., Milford, MA, USA), equipped with a Waters Acquity UHPLC photodiode array (PDA) detection system, was used to carry out the analysis. Empower™ software (Waters Corp., USA) was used to process and quantify peaks after recording the signals. A Waters Acquity HSS T3 analytical column (100 mm × 2.1 mm, 1.8 μm particle size) (Waters Corp., USA), with an isocratic mobile phase of 0.1% aqueous (v/v) formic acid at a flow rate of 250 μL/min, was used with an injection volume of 2 μL. The absorbance was measured at room temperature at 245 nm.
T. ferdinandiana digesta and intestinal absorption samples were analyzed for EA. All samples were centrifuged and filtered through 0.22 μm PTFE membrane filters (Millipore, CA, USA) before injection into the chromatographic system. Samples were analyzed on a Waters Acquity UHPLC system (Waters Corp., Milford, MA, USA) equipped with PDA detector. A Waters BEH Shield RP18 Column 130 °A, 1.7 μm (100 mm X 2.1 mm) from Waters Corporation (Milford, Massachusetts, USA) was used. Column temperature was maintained at 40°C, the injection volume was 2 μL, PDA spectrum was scanned from 200 to 400 nm with a rate of 2.5 Hz, and detection was carried out at 254 nm. […] Formic acid 0.1% was used for mobile phase A (Milli-Q water) and phase B (acetonitrile) at a flow rate of 0.4 mL/min.
T. ferdinandiana digesta and intestinal absorption samples were cleaned up with a SPE step ([20]) for OA analysis. Mixed reversed phase-[…] anion exchange sorbent Strata® SAX (55 μm, 70 Å, 500 mg/3 mL) was purchased from Phenomenex (Torrance, CA, USA) and used in this study. The SPE process was maintained through an Analytichem VAC ELUT SPS 24 Port Vacuum Manifold from Agilent Varian (Santa Clara, CA, USA). The SPE columns were sequentially conditioned with 3 mL of methanol and 3 mL of milli-Q water. Digesta and intestinal absorption samples at a volume of 1 mL dripped through the cartridges by gravity (with a flow rate of about 1 mL/min). The cartridges were washed with 3 mL of water and 3 mL of methanol.

Data set [5] concerns HepG2 cells. Details: method as in PMID 19101929. As to conditions: cited from earlier work.
In data set [6] the test system is Caco-2 cell barrier. Details: method as in PMID 27738446. Particulars: reported previously; cited from earlier work.
Where [7] appears, read: Gastric t = 0 (G0), released from T. ferdinandiana fruit matrix.
[8] abbreviates: Intestinal t = 30 min (I30), pancreatin and bile.
The mark [9] stands for this setting: Gastric t = 60 min (G60), pepsin.
Setting [10] is: intestinal phase, time point not stated.

The text below walks through data of PMC8828953, “In vitro Bioaccessibility and Intestinal Absorption of Selected Bioactive Compounds in Terminalia ferdinandiana” (Frontiers in Nutrition, 2022).

As a reminder, the Papp is a coefficient for how fast a substance crosses the barrier.

Where “and” joins values, the source holds several entries; their conditions need not be identical. Equal values may be shown once. Entries after “also recorded” stand apart in the source; their conditions may differ. Read-outs that look alike come from different tables or passages of the source. Marks after values point to notes of the source that are not given here.

Turning to `O=C1O[C@H]([C@@H](O)CO)C(O)=C1O` [AA, ascorbic acid], the Papp at 120 min in data set [1] (I30 digesta) came to 41 ± 5 ×10⁻⁶ cm/s; in data set [1] (I60 digesta), 19 ± 0.4 ×10⁻⁶ cm/s; in data set [1] (I120 digesta), 10 ± 0.1 ×10⁻⁶ cm/s. In data set [2], the “In vitro permeability (in words)” value was “low apparent permeability; also recorded: in vitro permeability was low”. Further, in data set [3], the “Recovery after gastric digestion” value is on record as 83%. The Bioaccessibility in data set [4] (setting [7]) is 93% and 93 ± 2^a %; in data set [4] (setting [8]), 93% and 93 ± 7^a %; in data set [4] (Intestinal t = 60 min (I60)) it was 100% and 100 ± 1^a %; in data set [4] (Intestinal t = 120 min (I120)), 79% and 79 ± 5^a %.

Take `O=c1oc2c(O)c(O)cc3c(=O)oc4c(O)c(O)cc1c4c23` [EA, ellagic acid]: the figures for the Papp at 120 min in data set [1] (I30 digesta), in data set [1] (I60 digesta) and in data set [1] (I120 digesta) were 796 ± 7 ×10⁻⁶ cm/s, 394 ± 4 ×10⁻⁶ cm/s and 201 ± 2 ×10⁻⁶ cm/s, respectively. In addition, the “In vitro permeability (in words)” value in data set [2] is recorded as “highest permeability”. Besides, the “Time at which absorption was detected after application” value in data set [5] was 15 min. For the same compound, the “Time of peak absorption” value in data set [5] is listed as 4 h. For the same compound, the Papp in data set [6] is reported as 0.347 ± 0.018 /10^−6 cm/s. Further, the Bioaccessibility in data set [4] (setting [7]) was 33% and 33 ± 1^b %; in data set [4] (setting [9]), 42 ± 1^b %; in data set [4] (setting [8]) it was 49% and 49 ± 3^b %; in data set [4] (Intestinal t = 60 min (I60)) it was 49% and 49 ± 1^b %; in data set [4] (Intestinal t = 120 min (I120)) it was 48% and 48 ± 1^b %; in data set [4] (setting [10]), 48%.

On to `[Ca+2]` [Ca^2+, calcium], for which the “Apparent permeability (Papp)” value in data set [2] (I30 digesta) was 60 ± 6^a x 10^−6 cm/s; in data set [2] (I60 digesta), 56 ± 7^a x 10^−6 cm/s; in data set [2] (I120 digesta) it was 50 ± 9^a x 10^−6 cm/s. The Bioaccessibility was 67 ± 4^c % in data set [4] (setting [7]); 67% in data set [4] (Gastric t = 0 (G0), released from T. ferdinandiana fruit matrix, listed as calcium); 69 ± 1^a % in data set [4] (setting [9]); 90% and 90^a ± 0.0% in data set [4] (setting [8]); 90% and 90 ± 1^c % in data set [4] (Intestinal t = 60 min (I60)); 79% and 79 ± 2^a % in data set [4] (Intestinal t = 120 min (I120)). Further, in data set [4] (setting [10]), the Bioaccessibility is given as 90%.

Take `O=C(O)C(=O)O` [OA, oxalic acid]: the Papp at 120 min in data set [1] (I30 digesta) came out at 258 ± 5 ×10⁻⁶ cm/s; in data set [1] (I60 digesta) it was 231 ± 1 ×10⁻⁶ cm/s; in data set [1] (I120 digesta) it was 150 ± 7 ×10⁻⁶ cm/s. The Bioaccessibility in data set [4] (setting [7]) is 72% and 72 ± 7^c %; in data set [4] (setting [9]), 85 ± 2^a %; in data set [4] (setting [8]) it was 98% and 99^a ± 0.0%; in data set [4] (Intestinal t = 60 min (I60)), 98 ± 3^a %; in data set [4] (Intestinal t = 120 min (I120)), 89% and 89 ± 1^a %; in data set [4] (setting [10]), 98%.
